Test results reported in ChEMBL document CHEMBL6182945, “MMAE-Based Peptide-Drug Conjugates Targeting GPC3 for Precision Chemoradiotherapy in Hepatocellular Carcinoma” (J Med Chem, 2025).
Starred links: 1 amine or outer side, 2 acyl side, 3 side chain; linkers in the order of their positions; H or OH if unused. Positions of bridges follow the written chain, without caps; N, C: chain ends. Non-standard residues stand in square brackets, D forms with d. Residues, ends and D or L forms follow the SMILES beside them. Chains are numbered I, II in the order given. *: point of attachment. X2 = CC[C@H](C)[C@@H]([C@@H](CC(=O)N1CCC[C@H]1[C@H](OC)[C@@H](C)C(=O)N[C@H](C)[C@H](O)c1ccccc1)OC)N(C)[C@H](C(=O)NC(=O)[C@H](C(C)C)N(C)C(=O)OCc1ccc(NC(=O)[C@H](CCCNC(N)=O)NC(=O)[C@@H](NC(=O)CCCCCN2C(=O)CC(*)C2=O)C(C)C)cc1)C(C)C; Hexanoyl(6-succinimido-3yl) = O=C1CC([*:1])C(=O)N1CCCCCC(=O)[*:2]; Dolaproine = CO[C@@H]([C@@H]1CCCN1)[C@@H](C)C(=O)O; Dil = CC[C@H](C)[C@H](NC)[C@@H](CC(=O)O)OC; PABC = O=C(OCc1ccc(N[*:1])cc1)[*:2]; X1 = C[C@@H](N*)[C@@H](O)c1ccccc1; Cit = NC(=O)NCCC[C@H](N)C(=O)O; NMeV = CN[C@H](C(=O)O)C(C)C

Legend:
LX-2 = assay: Antiproliferative activity against GPC3-negative human LX-2 cells assessed as cytotoxicity measured after 72 hrs by MTT assay; assay type: functional, cell-based; conditions: LX-2, 72 h
Hep 3B2 = assay: Antiproliferative activity against GPC3-positive human Hep3B cells assessed as cytotoxicity measured after 72 hrs by MTT assay; assay type: functional, cell-based
HeLa = assay: Antiproliferative activity against GPC3-negative human HeLa cells assessed as cytotoxicity measured after 72 hrs by MTT assay; assay type: functional, cell-based
Huh-7 = assay: Antiproliferative activity against GPC3-positive human Huh-7 cells assessed as cytotoxicity measured after 72 hrs by MTT assay; assay type: functional, cell-based; conditions: Huh-7, 72 h
[1] = Drug uptake in human Huh-7 cells assessed as red fluorescence in inside the cells measured after 30 mins by live cell confocal imaging analysis; assay type: ADME, cell-based; conditions: huh-7, 0.5 h
[2] = Drug uptake in human Huh-7 cells assessed as green fluorescence in lysosomes measured after 30 mins co-staining with lysotracker by live cell confocal imaging analysis; assay type: ADME, cell-based; conditions: huh-7, 0.5 h

Q: Which results are given for `CC[C@H](C)[C@@H]([C@@H](CC(=O)N1CCC[C@H]1[C@H](OC)[C@@H](C)C(=O)N[C@H](C)[C@@H](O)c1ccccc1)OC)N(C)C(=O)[C@@H](NC(=O)[C@H](C(C)C)N(C)C(=O)OCc1ccc(NC(=O)[C@H](CCCNC(N)=O)NC(=O)[C@@H](NC(=O)CCCCCN2C(=O)CC(SC[C@H](N)C(=O)N[C@@H](CC(=O)O)C(=O)N[C@@H](Cc3cnc[nH]3)C(=O)N[C@@H](CC(C)C)C(=O)N[C@@H](C)C(=O)N[C@@H](CO)C(=O)N[C@@H](CC(C)C)C(=O)N[C@@H](Cc3c[nH]c4ccccc34)C(=O)N[C@@H](Cc3c[nH]c4ccccc34)C(=O)NCC(=O)N[C@H](C(=O)N[C@@H](CCC(=O)O)C(=O)N[C@@H](CC(C)C)C(N)=O)[C@@H](C)O)C2=O)C(C)C)cc1)C(C)C` (stereo partly drawn) (I: H-CDHLASLWWGTEL-NH2 / II: V[Cit][PABC][NMeV]V[Dil][Dolaproine]-X1; linker I:1-II:N via Hexanoyl(6-succinimido-3yl))?
A: IC50 (LX-2): > 100 nM; IC50 (Hep 3B2): > 100 nM; IC50 (HeLa): > 100 nM; IC50 (Huh-7): > 100 nM

Q: Which Drug uptake [1] does the source give for `CC[C@H](C)[C@@H]([C@@H](CC(=O)N1CCC[C@H]1[C@H](OC)[C@@H](C)C(=O)N[C@H](C)[C@@H](O)c1ccccc1)OC)N(C)C(=O)[C@@H](NC(=O)[C@H](C(C)C)N(C)C(=O)OCc1ccc(NC(=O)[C@H](CCCNC(N)=O)NC(=O)[C@@H](NC(=O)CCCCCN2C(=O)CC(SC[C@H](NC(=O)CCCCC[N+]3=C(/C=C/C=C/C=C4\N(C)c5ccc6ccccc6c5C4(C)C)C(C)(C)c4c3ccc3ccccc43)C(=O)N[C@@H](CO)C(=O)N[C@@H](CC(N)=O)C(=O)N[C@@H](CC(=O)O)C(=O)N[C@@H](CCCNC(=N)N)C(=O)N3CCC[C@H]3C(=O)N3CCC[C@H]3C(=O)N[C@@H](CC(N)=O)C(=O)N[C@H](C(=O)N[C@@H](CC(C)C)C(=O)N[C@@H](CCC(N)=O)C(=O)N[C@@H](CCCCN)C(=O)N[C@@H](CCCNC(=N)N)C(N)=O)[C@@H](C)CC)C2=O)C(C)C)cc1)C(C)C` (stereo partly drawn) here?
A: Its Drug uptake is “Active”.

Q: And the Drug uptake [2]?
A: The Drug uptake was “Active”.

Q: With `CC[C@H](C)[C@@H]([C@@H](CC(=O)N1CCC[C@H]1[C@H](OC)[C@@H](C)C(=O)N[C@H](C)[C@@H](O)c1ccccc1)OC)N(C)C(=O)[C@@H](NC(=O)[C@H](C(C)C)N(C)C(=O)OCc1ccc(NC(=O)[C@H](CCCNC(N)=O)NC(=O)[C@@H](NC(=O)CCCCCN2C(=O)CC(SC[C@H](N)C(=O)N[C@@H](CCCNC(=N)N)C(=O)N[C@@H](CC(C)C)C(=O)N[C@@H](CC(N)=O)C(=O)N[C@H](C(=O)NCC(=O)NCC(=O)N[C@H](C(=O)N[C@@H](Cc3ccc(O)cc3)C(=O)N[C@@H](Cc3ccccc3)C(=O)N[C@@H](CC(C)C)C(=O)N[C@H](C(=O)N[C@H](C(=O)N[C@@H](CCCNC(=N)N)C(=O)N[C@@H](CCC(N)=O)C(N)=O)[C@@H](C)O)[C@@H](C)O)[C@@H](C)O)C(C)C)C2=O)C(C)C)cc1)C(C)C` (stereo partly drawn) (I: H-CRLNVGGTYFLTTRQ-NH2 / II: V[Cit][PABC][NMeV]V[Dil][Dolaproine]-X1; linker I:1-II:N via Hexanoyl(6-succinimido-3yl)) as the compound, how does the IC50 (LX-2) read?
A: Its IC50 is 30.8 nM.

Q: What about the IC50 (Hep 3B2) of the same compound?
A: Its IC50 is 81.2 nM.

Q: What about the IC50 (HeLa) of the same compound?
A: Its IC50 is 70.4 nM.

Q: What about the IC50 (Huh-7) of the same compound?
A: The IC50 was 67.9 nM.

Q: For `CC[C@H](C)[C@@H]([C@@H](CC(=O)N1CCC[C@H]1[C@H](OC)[C@@H](C)C(=O)N[C@H](C)[C@@H](O)c1ccccc1)OC)N(C)C(=O)[C@@H](NC(=O)[C@H](C(C)C)N(C)C(=O)OCc1ccc(NC(=O)[C@H](CCCNC(N)=O)NC(=O)[C@@H](NC(=O)CCCCCN2C(=O)CC(SC[C@H](N)C(=O)N[C@@H](CC(=O)O)C(=O)N[C@@H](Cc3ccc(O)cc3)C(=O)N[C@@H](CCC(=O)O)C(=O)N[C@@H](CCSC)C(=O)N[C@@H](Cc3cnc[nH]3)C(=O)N[C@@H](CC(C)C)C(=O)N[C@@H](Cc3c[nH]c4ccccc34)C(=O)N[C@@H](Cc3c[nH]c4ccccc34)C(=O)NCC(=O)N[C@H](C(=O)N[C@@H](CCC(=O)O)C(=O)N[C@@H](CC(C)C)C(N)=O)[C@@H](C)O)C2=O)C(C)C)cc1)C(C)C` (stereo partly drawn) (I: H-CDYEMHLWWGTEL-NH2 / II: V[Cit][PABC][NMeV]V[Dil][Dolaproine]-X1; linker I:1-II:N via Hexanoyl(6-succinimido-3yl)), which IC50 (LX-2) is on record?
A: The IC50 was 58.1 nM.

Q: And the IC50 (Hep 3B2)?
A: The IC50 was over 100 nM.

Q: What about the IC50 (HeLa) of the same compound?
A: Its IC50 is over 100 nM.

Q: What about the IC50 (Huh-7) of the same compound?
A: The IC50 was 41.5 nM.

Q: What does the source list for `CC[C@H](C)[C@@H]([C@@H](CC(=O)N1CCC[C@H]1[C@H](OC)[C@@H](C)C(=O)N[C@H](C)[C@H](O)c1ccccc1)OC)N(C)[C@H](C(=O)NC(=O)[C@H](C(C)C)N(C)C(=O)OCc1ccc(NC(=O)[C@H](CCCNC(N)=O)NC(=O)[C@@H](NC(=O)CCCCCN2C(=O)CC(SC[C@H](N)C(=O)N[C@H](C(=O)N[C@@H](Cc3cnc[nH]3)C(=O)N[C@H](C(=O)N[C@@H](CO)C(=O)N3CCC[C@H]3C(=O)N[C@@H](CC(N)=O)C(=O)N[C@@H](CCC(N)=O)C(=O)NCC(=O)NCC(=O)N[C@@H](CC(C)C)C(=O)N3CCC[C@H]3C(=O)N[C@@H](CO)C(=O)O)C(C)C)[C@@H](C)O)C2=O)C(C)C)cc1)C(C)C` (stereo partly drawn) (H-C(X2)THVSPNQGGLPS-OH)?
A: IC50 (LX-2): 48.9 nM; IC50 (Hep 3B2): > 100 nM; IC50 (HeLa): > 100 nM; IC50 (Huh-7): 40 nM
